Converted amounts (≈) assume the structure as drawn.
Columns and labels:
P. aeruginosa 33b (PDR) = assay: Antibacterial MIC/MBC (broth microdilution); type: cell-based, Pseudomonas aeruginosa; settings: Pseudomonas aeruginosa, P. aeruginosa 33b (PDR); for MBC: read-out: MBC; for MIC: read-out: MIC
From the text: (§1) Twelve reference bacterial strains and nine MDR clinically relevant bacterial strains were used in this study. Gram-negative bacteria comprised reference strains E. coli ATCC 25922, K. pneumoniae ATCC 13883, Salmonella enterica serovar Typhimurium CECT 443, P. aeruginosa ATCC 27853, A. baumannii ATCC 19606, C. jejuni ATCC 33560 (ATCC—American Type Culture Collection; CECT—Colección Espanola de Cultivos Tipo); clinical isolates E. coli SA/2, an extended-spectrum β-lactamase (ESBL)-producing strain and P. aeruginosa 33b, a pan-drug-resistant isolate; and animal isolates C. jejuni P5/4, a ciprofloxacin-resistant strain, C. jejuni 4432, C. jejuni 4433, C. jejuni 4448, and E. coli 2252, a COL-resistant strain [42]. Gram-positive strains included S. aureus ATCC 29213, E. faecalis ATCC 29212, S. pyogenes ATCC 19615, and environmental isolates methicillin-resistant S. aureus (MRSA) 66/1 [43], and VAN-resistant enterococci (VRE) E. faecalis B3/101 [44]. Gram-negative fish pathogens Yersinia ruckeri ATCC 29473, Listonella anguillarum ATCC 1924, and Tenacibaculum maritimum ATCC 43397 were also included.
(§2) Strains were kept in Trypto-Casein Soy agar (TSA—Biokar Diagnostics, Allone, Beauvais, France) slants and, before each assay, were sub-cultured in Mueller-Hinton agar (MHA—Biokar Diagnostics, Allone, Beauvais, France). Y. ruckeri ATCC 29473 and L. anguillarum ATCC 1924 were kept in Nutrient Agar (Condalab, Madrid, Spain) and T. maritimum ATCC 43397 was kept in TMM agar (Condalab, Madrid, Spain), and were sub-cultured in the respective culture media before each assay. For S. pyogenes ATCC 19615, CAMHB was supplemented with 3.75% lysed horse blood (LBH—Oxoid, Basingstoke, England), whereas for C. jejuni it was supplemented with 2.5% LHB. Colony-forming unit counts of the inoculum were conducted to determine the initial inoculum size (which should be approximately 5×10^5 CFU/mL). Sterility and growth controls were included in each assay. The 96-well U-shaped untreated polystyrene microtiter plates were incubated for 20 h at 37 degrees C. (42 degrees C. for C. jejuni, in a microaerophilic atmosphere) and the minimal inhibitory concentration (MIC) was determined as the lowest concentration of compound that prevented visible growth. The minimal bactericidal concentration (MBC) was determined by spreading 100 μL of the content of the wells with no visible growth on MH plates. The MBC was determined as the lowest concentration of compound that killed 99.9% of the initial inoculum after overnight incubation at 37 degrees C. Two independent assays were performed for reference and MDR strains.
(§3) An initial screening of the antibacterial activity of the compounds was performed by the Kirby-Bauer disk diffusion method, as recommended by the Clinical and Laboratory Standards Institute (CLSI). Briefly, sterile 6 mm blank paper disks (Oxoid, Basingstoke, England) impregnated with 15 μg of each compound were placed on inoculated MH agar plates. A blank disk with dimethylsulfoxide (DMSO) was used as a negative control. MH inoculated plates were incubated for 18-20 h at 37 degrees C. At the end of incubation, the inhibition halos where measured. The MIC was used to determine the antibacterial activity of each compound, in accordance with the recommendations of the CLSI. Two-fold serial dilutions of the compounds were prepared in Mueller-Hinton Broth 2 (MHB2—Sigma-Aldrich, St. Louis, MO, USA) within the concentration range of 0.062-64 μg/mL. CTX ranging between 0.031-16 μg/mL was used as a control. Sterility and growth controls were included in each assay. Purity checks and colony counts of the inoculum suspensions were also performed in order to ensure that the final inoculum density closely approximates the intended number (5×10^5 CFU/mL). The MIC was determined as the lowest concentration of compound that inhibited growth of the bacteria. The MBC was assessed by spreading 10 μL of culture collected from wells showing no visible growth on MH agar plates. […]

[1] = test system: Acinetobacter baumannii ATCC 19606; assay: Antibacterial MIC/MBC (broth microdilution); type: cell-based; settings: for MBC / MIC: ATCC19606, Acinetobacter baumannii ATCC 19606; for MBC: read-out: MBC; for MIC: read-out: MIC
From the text: as §1, §2, §3

[2] = test system: Campylobacter jejuni ATCC 33560; assay: Antibacterial MIC/MBC (broth microdilution); type: cell-based; settings: ATCC33560, Campylobacter jejuni ATCC 33560; for MBC: read-out: MBC; for MIC: read-out: MIC
From the text: as §1, §2, §3

[3] = test system: Escherichia coli ATCC 25922; assay: Antibacterial MIC/MBC (broth microdilution); type: cell-based; settings: ATCC25922, Escherichia coli ATCC 25922; for MBC: read-out: MBC; for MIC: read-out: MIC
From the text: as §1, §2, §3

[4] = test system: Klebsiella pneumoniae ATCC 13883; assay: Antibacterial MIC/MBC (broth microdilution); type: cell-based; settings: ATCC13883, Klebsiella pneumoniae ATCC 13883; for MBC: read-out: MBC; for MIC: read-out: MIC
From the text: as §1, §2, §3

[5] = test system: Listonella anguilarum ATCC 1924; assay: Antibacterial MIC/MBC (broth microdilution); type: cell-based; settings: for MBC / MIC: Listonella anguilarum ATCC 1924; for MBC: read-out: MBC; for MIC: read-out: MIC
From the text: as §1, §2, §3

[6] = test system: Pseudomonas aeruginosa ATCC 27853; assay: Antibacterial MIC/MBC (broth microdilution); type: cell-based; settings: ATCC27853, Pseudomonas aeruginosa ATCC 27853; for MBC: read-out: MBC; for MIC: read-out: MIC
From the text: as §1, §2, §3

[7] = test system: Salmonella enterica serovar Typhimurium CECT 443; assay: Antibacterial MIC/MBC (broth microdilution); type: cell-based; settings: for MBC: read-out: MBC; for MIC: read-out: MIC
From the text: as §1, §2, §3

[8] = test system: Staphylococcus aureus ATCC 29213; assay: Antibacterial MIC/MBC (broth microdilution); type: cell-based; settings: for MBC: ATCC29213, read-out: MBC; for MIC: ATCC29213, read-out: MIC
From the text: as §1, §2, §3

[9] = test system: Yersinia ruckeri ATCC 29473; assay: Antibacterial MIC/MBC (broth microdilution); type: cell-based; settings: for MBC: ATCC29473, read-out: MBC; for MIC: ATCC29473, read-out: MIC
From the text: as §1, §2, §3

[10] = test system: Tenacibaculum maritimum ATCC 43397; assay: Antibacterial disk diffusion; type: cell-based; settings: Tenacibaculum maritimum ATCC 43397, footnote *
From the text: as §1, §2, §3

S. aureus 66/1 (MRSA) = assay: Antibacterial MIC/MBC (broth microdilution); type: cell-based, Staphylococcus aureus; settings: Staphylococcus aureus; for MBC: read-out: MBC; for MIC: read-out: MIC
From the text: as §1, §2, §3

E. faecalis B3/101 (VRE) = assay: Antibacterial MIC/MBC (broth microdilution); type: cell-based, Enterococcus faecalis; settings: for MBC / MIC: Enterococcus faecalis, E. faecalis B3/101 (VRE); for MBC: read-out: MBC; for MIC: read-out: MIC
From the text: as §1, §2, §3

[11] = test system: Enterococcuss faecalis ATCC 29212; assay: Antibacterial MIC/MBC (broth microdilution); type: cell-based, Enterococcus faecalis; settings: for MBC / MIC: Enterococcus faecalis, ATCC29212, Enterococcuss faecalis ATCC 29212; for MBC: read-out: MBC; for MIC: read-out: MIC
From the text: as §1, §2, §3

[12] = test system: Streptococcuss pyogenes ATCC 19615; assay: Antibacterial MIC/MBC (broth microdilution); type: cell-based, Streptococcus pyogenes; settings: Streptococcus pyogenes, ATCC19615, Streptococcuss pyogenes ATCC 19615; for MBC: read-out: MBC; for MIC: read-out: MIC
From the text: as §1, §2, §3

Row | Compound | MBC (P. aeruginosa 33b (PDR)) [µg/mL] | MIC (P. aeruginosa 33b (PDR)) [µg/mL] | MBC [1] [µg/mL] | MIC [1] [µg/mL] | MBC [2] [µg/mL] | MIC [2] [µg/mL] | MBC [3] [µg/mL] | MIC [3] [µg/mL] | MBC [4] [µg/mL] | MIC [4] [µg/mL] | MBC [5] [µg/mL] | MIC [5] [µg/mL] | MBC [6] [µg/mL] | MIC [6] [µg/mL] | MBC [7] [µg/mL] | MIC [7] [µg/mL] | MBC [8] [µg/mL] | MIC [8] [µg/mL] | MBC [9] [µg/mL] | MIC [9] [µg/mL] | further results
1 | C[C@H](CCC(=O)N1CCN(C(=O)OC(C)(C)C)CC1)[C@H]1CC[C@H]2[C@@H]3CC[C@@H]4C[C@H](O)CC[C@]4(C)[C@H]3C[C@H](O)[C@]12C [Compound 5, tert-butyl 4-((R)-4-((3R,5R,8R,9S,10S,12S,13R,14S,17R)-3,12-dihydroxy-10,13-dimethylhexadecahydro-1H-cyclopenta[a]phenanthren-17-yl)pentanoyl)piperazine-1-carboxylate] | > 64 | > 64 | > 64 | > 64 | > 64 | > 64 | > 64 | > 64 | > 64 | > 64 | > 64 | > 64 | > 64 | > 64 | > 64 | > 64 | > 64 | 16 (≈ 28.5 µM) | > 64 | > 64 | Inhibition zone diameter (disk diffusion) [10]: 10 mm; MBC (S. aureus 66/1 (MRSA)): > 64 µg/mL; MIC (S. aureus 66/1 (MRSA)): 64 µg/mL (≈ 114 µM); MBC (E. faecalis B3/101 (VRE)): > 64 µg/mL; MIC (E. faecalis B3/101 (VRE)): > 64 µg/mL; MBC [11]: > 64 µg/mL; MIC [11]: > 64 µg/mL; MBC [12]: > 64 µg/mL; MIC [12]: > 64 µg/mL
2 | C[C@H](CCC(=O)N1CCNCC1)[C@H]1CC[C@H]2[C@@H]3CC[C@@H]4C[C@H](O)CC[C@]4(C)[C@H]3C[C@H](O)[C@]12C [Compound 9, (R)-4-((3R,5R,8R,9S,10S,12S,13R,14S,17R)-3,12-dihydroxy-10,13-dimethylhexadecahydro-1H-cyclopenta[a]phenanthren-17-yl)-1-(piperazin-1-yl) pentan-1-one] | > 64 | > 64 | 64 (≈ 139 µM) | 64 (≈ 139 µM) | > 64 | > 64 | > 64 | > 64 | > 64 | > 64 | 64 (≈ 139 µM) | 64 (≈ 139 µM) | > 64 | > 64 | 64 (≈ 139 µM) | 64 (≈ 139 µM) | 64 (≈ 139 µM) | 64 (≈ 139 µM) | > 64 | > 64 | antibacterial activity (in words) ([1]; A. baumannii ATCC 19606): displayed an inhibitory effect; antibacterial activity (in words) ([5]; Listonella anguilarum): active; Inhibition zone diameter (disk diffusion) [10]: 9 mm; MBC (S. aureus 66/1 (MRSA)): 64 µg/mL (≈ 139 µM); MIC (S. aureus 66/1 (MRSA)): 64 µg/mL (≈ 139 µM); antibacterial activity (in words) (E. faecalis B3/101 (VRE); E. faecalis B3/101): displayed the same effect; MBC (E. faecalis B3/101 (VRE)): > 64 µg/mL; MIC (E. faecalis B3/101 (VRE)): 32 µg/mL (≈ 69.5 µM); antibacterial activity (in words) ([11]; E. faecalis ATCC 29212): exhibited antimicrobial activity; MBC [11]: 64 µg/mL (≈ 139 µM); MIC [11]: 64 µg/mL (≈ 139 µM); MBC [12]: > 64 µg/mL; MIC [12]: > 64 µg/mL

— patent US20250002450A1, “CATIONIC STEROID COMPOUNDS, METHOD OF OBTAINING THEREOF, FORMULATIONS COMPRISING THEREOF AND THEIR USES” (UNIVERSIDADE DO PORTO, priority 2021, published 2025)
